From ChEMBL document CHEMBL1127239, “Novel cytotoxic annonaceous acetogenins: (2,4-cis and trans)-bulladecinones from annona bullata (annonaceae)” (Bioorg Med Chem Lett, 1994) come the findings set out here.

The subject of one series is A549. Put plainly: Compound was tested for cytotoxic activity against human lung carcinoma (A-549). To be noted: for EC50: Homo sapiens, A549, read-out: ED50 (the source's name). Type of series: functional.
Another series has as its system HT-29. Put plainly: Compound was tested for cytotoxic activity against human colon adenocarcinoma (HT-29). Conditions: for EC50: Homo sapiens, HT-29, read-out: ED50 (the source's name). The class given is functional.
Another series relates to MCF7. Put plainly: Compound was tested for cytotoxic activity against human breast carcinoma (MCF-7). Type of series: functional. Conditions: for EC50: Homo sapiens, MCF7, read-out: ED50 (the source's name).
The nature of series [1]: (§1) Compound was tested for lethal concentration in Brine shrimp lethality test (BST). Type of series: organism-based. Conditions: artemia, in vivo.
A further series concerns Artemia. The description is as §1. Type of series: organism-based. To be noted: in vivo.

Values after ≈ are worked out from the molar mass of the structure shown.

A word on the LC50: it is the concentration lethal to half of the exposed cells or organisms. The low end stands for greater toxicity, the high end for lower toxicity.

Consider `CCCCCCCCCCC(O)C(O)CCC(O)C1CCC(C2CCC(CCCCCCCC3CC(CC(C)=O)C(=O)O3)O2)O1` (stereo in doubt), for which the EC50 was 0.0337 ng/mL (≈ 0.0527 nM) in the series on A549, 229 ng/mL (≈ 358 nM) in the series on HT-29 and 1.07 ng/mL (≈ 1.67 nM) in the series on MCF7. For the same compound, the LC50 in series [1] worked out at 137 ng/mL (≈ 214 nM).

In the case of `CCCCCCCCCCC(O)C(O)CCC(O)C1CCC(C2CCC(CCCCCCCC3CC(CC(C)=O)C(=O)O3)O2)O1` (trans isomer), the ED50 in the series on A549 amounted to 0.0337 ng/mL (≈ 0.0527 nM); in the series with HT-29, 229 ng/mL (≈ 358 nM); in the series on MCF7 it was 1.07 ng/mL (≈ 1.67 nM). Besides, the LC50 in the series with Artemia stood at 137 ng/mL (≈ 214 nM).

Take `COc1cccc2c1C(=O)c1c(O)c3c(c(O)c1C2=O)C[C@@](O)(C(=O)CO)C[C@@H]3O[C@H]1C[C@H](N)[C@H](O)[C@H](C)O1` [DOXORUBICIN]: the figures for the EC50 in the series on A549, in the series on HT-29 and in the series on MCF7 were 0.153 ng/mL (≈ 0.281 nM), 0.558 ng/mL (≈ 1.03 nM) and 13.8 ng/mL (≈ 25.4 nM), respectively. In the series with Artemia, this compound yielded an LC50 of 80 ng/mL (≈ 147 nM).
